We go through 8 compounds from patent publication US9745283B2, “Uracil derivatives as AXL and c-MET kinase inhibitors” (priority 2011, dated 2017).

Test [1] deals with recombinant human baculovirus-expressed AXL (Homo sapiens (Human), UniProt P30530). The experiment in a line: AXL Kinase Assay (HTRF KinEASE). Particulars: average of two or more determinations. In kind it is biochemical. A general note: In TR-FRET formats the signal depends on donor and acceptor labels being close together.
Test [2] addresses recombinant human baculovirus-expressed cMET (Homo sapiens (Human), UniProt P08581). The test can be described thus: C-MET Kinase Assay (HTRF KinEASE). Particulars: average of two or more determinations; read-out: c-MET IC50. In kind it is biochemical. The procedure, abridged:
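HTRF KinEASE format with recombinant human baculovirus-expressed cMET at 8 ng/mL, biotinylated peptide at 0.1 μM and ATP at 0.02 μM. IC50 came from percent control activity versus log concentration, fitted by nonlinear regression to a variable-slope sigmoidal equation with bottom fixed at 0 and top at 100.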

The structures appear in SMILES notation. pIC50: −log10 of the molar value. Bounds are passed on as bounds.

One may read the pIC50 as −log10 of the IC50, conventionally taken in molar units.

Regarding `COc1cc2nccc(Oc3ccc(NC(=O)c4cn(CC(C)C)c(=O)n(-c5ccc(F)cc5)c4=O)cc3F)c2cc1OC` [Example 8, 3-(4-Fluorophenyl)-1-isobutyl-2,4-dioxo-1,2,3,4-tetrahydropyrimidine-5-carboxylic acid [4-(6,7-dimethoxyquinolin-4-yloxy)-3-fluorophenyl]-amide], the negative-log IC50 (pIC50) in test [1] was over 8.00; in test [2], 7.00 to 8.00.

Turning to `COc1cc(Oc2ccnc3cc(OC)c(OC)cc23)ccc1NC(=O)c1cn(C)c(=O)n(-c2ccc(F)cc2)c1=O` [Example 144, 1-Methyl-3-(4-fluoro-phenyl)-2,4-dioxo-1,2,3,4-tetrahydro-pyrimidine-5-carboxylic acid [4-(6,7-dimethoxy-quinolin-4-yloxy)-2-methoxy-phenyl]-amide], the pIC50 in test [1] is over 8.00; in test [2] it was 7.00 to 8.00.

On to `CCn1cc(C(=O)Nc2ccc(Oc3ccnc4cc(OC)c(OC)cc34)cn2)c(=O)n(-c2ccc(F)cc2)c1=O` [Example 31, 1-Ethyl-3-(4-fluorophenyl)-2,4-dioxo-1,2,3,4-tetrahydropyrimidine-5-carboxylic acid [5-(6,7-dimethoxyquinolin-4-yloxy)-pyridin-2-yl]-amide], for which the negative-log IC50 (pIC50) in test [1] is over 8.00; in test [2], 7.00 to 8.00.

`COc1cc2nccc(Oc3ccc(NC(=O)c4cn(C)c(=O)n(-c5ccc(F)cc5)c4=O)cc3)c2cc1OC` [Example 18, 3-(4-Fluorophenyl)-1-methyl-2,4-dioxo-1,2,3,4-tetrahydropyrimidine-5-carboxylic acid [4-(6,7-dimethoxyquinolin-4-yloxy)-phenyl]-amide]: the negative-log IC50 (pIC50) in test [1] was over 8.00; in test [2], 7.00 to 8.00.

For `CCn1c(C)c(C(=O)Nc2ccc(Oc3ccnc4cc(OC)c(OC)cc34)c(F)c2)c(=O)n(-c2ccc(F)cc2)c1=O` [Example 32, 1-Ethyl-3-(4-fluorophenyl)-6-methyl-2,4-dioxo-1,2,3,4-tetrahydropyrimidine-5-carboxylic acid [4-(6,7-dimethoxyquinolin-4-yloxy)-3-fluorophenyl]-amide], the pIC50 in test [1] and in test [2] was over 8.00 each time.

With `COc1cc2nccc(Oc3ccc(NC(=O)c4cn(CCO)c(=O)n(-c5ccc(F)cc5)c4=O)cc3)c2cc1OC` [Example 53, 3-(4-Fluorophenyl)-1-(2-hydroxyethyl)-2,4-dioxo-1,2,3,4-tetrahydropyrimidine-5-carboxylic acid [4-(6,7-dimethoxyquinolin-4-yloxy)phenyl]-amide], the negative logarithm of the IC50 (pIC50) in test [1] and in test [2] was over 8.00 throughout.

Turning to `COc1cc2nccc(Oc3ccc(NC(=O)c4cn(CCN5CCCCC5)c(=O)n(-c5ccc(F)cc5)c4=O)cc3F)c2cc1OC` [Example 27, 3-(4-Fluorophenyl)-2,4-dioxo-1-(2-piperidin-1-yl-ethyl)-1,2,3,4-tetrahydropyrimidine-5-carboxylic acid [4-(6,7-dimethoxyquinolin-4-yloxy)-3-fluorophenyl]-amide], the pIC50 was over 8.00 in test [1] and 7.00 to 8.00 in test [2].

Take `COc1cc2nccc(Oc3ccc(NC(=O)c4cn(CCC5OCCO5)c(=O)n(-c5ccc(F)cc5)c4=O)cc3F)c2cc1OC` [Example 65, 1-[2-(1,3-Dioxolan-2-yl-ethyl)]-3-(4-fluoro-phenyl)-2,4-dioxo-1,2,3,4-tetrahydro-pyrimidine-5-carboxylic acid [4-(6,7-dimethoxy-quinolin-4-yloxy)-3-fluoro-phenyl]-amide]: the figures for the negative-log IC50 (pIC50) in test [1] and in test [2] were over 8.00 and 7.00 to 8.00, respectively.
